Here are results for one substance from US9260504B2, “N- and C-terminal substituted antagonistic analogs of GH-RH” (University of Miami, priority 2008, dated 2016).

What all share (assay type): in vivo
The test system of assay [1] is PC-3 human hormone-independent prostate cancer. Briefly: PC-3 human prostate cancer xenografts in nude mice, Experiment 4. The note with it: 10 μg/day s.c.
Assay [2] deals with H-460 human non-small cell lung cancer. Briefly: H-460 human non-SCLC xenografts in nude mice, Experiment 1. The note with it: 10 μg/day s.c., 28 days; means±S.E. The procedure: Male nude mice were implanted s.c. with 3 mm^3 pieces of H-460 human non-SCLC tumor tissue on both flanks. When tumors had grown to a mean volume of approximately 90 mm^3, the mice were randomly assigned into 4 experimental groups with 10 animals in each group and received single daily injections for 28 days as follows: 1. Control (vehicle solution); 2. JMR-132 (10 μg/day s.c.); 3. Peptide 1109 (10 μg/day s.c.); 4. Peptide 11111 (10 μg/day s.c.). Tumor volumes were measured once a week. The experiment was ended on day 28 by sacrificing the mice under Isoflurane anesthesia. Resulting tumors were cleaned, weighed, and snap-frozen until further analyses. Statistical analyses of the measurement results were done by two-tailed t-test, p<0.05 being considered significant. Data are presented as the means±S.E.

Assay [3] has the same test system. Briefly: H-460 human non-SCLC xenografts in nude mice, Experiment 2. To be noted: 10 μg/day s.c. The protocol: Male nude mice were implanted s.c. with 3 mm^3 pieces of H-460 human non-SCLC tumor tissue on both flanks. When tumors had grown to a mean volume of approximately 90 mm^3, the mice were randomly assigned into 12 experimental groups with 8 to 10 animals in each group and received single daily injections for 28 days as follows: 1. Control (vehicle solution); 2. JMR-132 (10 μg/day s.c.); 3. Peptide 11109 (5 μg/day s.c.); 4. Peptide 11113 (5 μg/day s.c.); 5. Peptide 11119 (5 μg/day s.c.); 6. Peptide 11209 (5 μg/day s.c.); 7. Peptide 11313 (5 μg/day s.c.); 8. Peptide 11408 (5 μg/day s.c.); 9. Peptide 11435 (5 μg/day s.c.); 10. Peptide 11459 (5 μg/day s.c.); 11. Peptide 11469 (5 μg/day s.c.); 12. Peptide 11491 (5 μg/day s.c.). Tumor volumes were measured once a week. The experiment was ended on day 28 by sacrificing the mice under Isoflurane anesthesia. Resulting tumors were cleaned, weighed, and snap-frozen until further analyses. Statistical analyses of the measurement results were done by two-tailed t-test, p<0.05 being considered significant. Data are presented as the means±S.E.

For assay [4] the test system is unchanged. The experiment in a line: H-460 human non-SCLC xenografts in nude mice, Experiment 3. To be noted: 10 μg/day s.c., 28 days. The protocol:
Male nude mice were implanted s.c. with 3 mm^3 pieces of H-460 human non-SCLC tumor tissue on both flanks. When tumors had grown to a mean volume of approximately 90 mm^3, the mice were randomly assigned into 8 experimental groups with 8 to 10 animals in each group and received single daily injections for 28 days as follows: 1. Control (vehicle solution); 2. JMR-132 (10 μg/day s.c.); 3. Peptide 11123 (5 μg/day s.c.); 4. Peptide 11125 (5 μg/day s.c.); 5. Peptide 11307 (5 μg/day s.c.); 6. Peptide 11317 (5 μg/day s.c.); 7. Peptide 11473 (5 μg/day s.c.); 8. Peptide 11485 (5 μg/day s.c.). Tumor volumes were measured once a week. The experiment was ended on day 28 by sacrificing the mice under Isoflurane anesthesia. Resulting tumors were cleaned, weighed, and snap-frozen until further analyses. Statistical analyses of the measurement results were done by two-tailed t-test, p<0.05 being considered significant.

In assay [5] the test system is Panc-1 human pancreatic cancer. Briefly: Panc-1 human pancreatic cancer xenografts in nude mice. The note with it: 10 μg/day s.c. for 36 days. The procedure:
Panc-1 cancers were transplanted s.c. into both flank areas of 60 female nude mice, and allowed to grow for 105 days before starting the treatment with GH-RH antagonists. The mice were randomly assigned into 3 experimental groups with 8 animals in each group and received single daily injections for 36 days as follows: 1. Control (vehicle solution); 2. JMR-132 (10 μg/day s.c.); 3. Peptide 11457 (10 μg/day s.c.). Tumor volumes were measured once a week. The experiment was ended on day 82 by sacrificing the mice under Isoflurane anesthesia. Resulting tumors were cleaned, weighed, and snap-frozen until further analyses. Statistical analyses of the measurement results were done by two-tailed t-test, p<0.05 being considered significant. Data are presented as the means±S.E.

Marks after values point to notes of the source that are not given here.

Take “[PhAc^0-Tyr^1, D-Arg^2, Cpa^6, Ala^8, Har^9, Tyr(Me)^10, His^11, Abu^15, His^20, Nle^27, D-Arg^28, Har^29]hGH-RH(1-29)NH2 [JMR-132, reference compound]”: in assay [1], the “Tumor growth after 28 days (%)” value was 1004%. In assay [1], the “Tumor growth after 46 days (%)” value was found to be 1848%. The “Inhibition (%)” value is listed as 26.62% in assay [1] (after 28 days); 44.52% in assay [1] (after 46 days); “(−46.14) %” in assay [3] (after 4 weeks, negative = stimulation). Also, the “Tumor growth after 4 weeks (%)” value in assay [2] came to 2404 ± 604%; in assay [3] (28 days, means±S.E.), 11537 ± 8215%. Besides, the “Tumor growth inhibition after 4 weeks (%)” value in assay [4] stood at 15.37%. Besides, the “Tumor weights” value in assay [5] (end of experiment day 82) amounted to 185 ± 105 mg. Besides, the “Tumor growth from day 1 to day 82 (%)” value in assay [5] (means±S.E.) is 1730 ± 350%. For the same substance, in assay [5] (means±S.E.), the “Tumor volume on day 82 (mm^3)” value was 511 ± 221* mm^3. The “Effect on the growth of Panc-1 human pancreatic cancers” value in assay [5] (observed for at least 82 days) was “less effective”.
